According to patent US8017607B2, “N-substituted-pyrrolidines as inhibitors of MDM2-P-53 interactions” (Hoffmann-La Roche Inc., priority 2009, dated 2011):

Target: interaction between p53 and MDM2 proteins (recombinant GST-tagged MDM2, biotinylated p53 peptide) (Homo sapiens, UniProt Q00987)
Assay: HTRF assay of inhibition of the p53-MDM2 interaction
Type: binding
Settings: bsa: 0.02%
Protocol: The ability of the compounds to inhibit the interaction between p53 and MDM2 proteins was measured by an HTRF (homogeneous time-resolved fluorescence) assay in which recombinant GST-tagged MDM2 binds to a peptide that resembles the MDM2-interacting region of p53 (Lane et al.). Binding of GST-MDM2 protein and p53-peptide (biotinylated on its N-terminal end) is registered by the FRET (fluorescence resonance energy transfer) between Europium (Eu)-labeled anti-GST antibody and streptavidin-conjugated Allophycocyanin (APC).
[…] Add 10 uL diluted compounds (1:5 dilution in reaction buffer) to each well, mix by shaking. Add 20 uL biotinylated p53 peptide (180 nM working solution) in reaction buffer to each well and mix on shaker. Incubate at 37° C. for 1 h. Add 20 uL streptavidin-APC and Eu-anti-GST antibody mixture (6 nM Eu-anti-GST and 60 nM streptavidin-APC working solution) in TBS buffer with 0.2% BSA, shake at room temperature for 30 minutes and read using a TRF-capable plate reader at 665 and 615 nm (Victor 5, Perkin ElmerWallac). If not specified, the reagents were purchased from Sigma Chemical Co.

Chain of interaction between p53 and MDM2 proteins (recombinant GST-tagged MDM2, biotinylated p53 peptide) (Q00987 whole entry): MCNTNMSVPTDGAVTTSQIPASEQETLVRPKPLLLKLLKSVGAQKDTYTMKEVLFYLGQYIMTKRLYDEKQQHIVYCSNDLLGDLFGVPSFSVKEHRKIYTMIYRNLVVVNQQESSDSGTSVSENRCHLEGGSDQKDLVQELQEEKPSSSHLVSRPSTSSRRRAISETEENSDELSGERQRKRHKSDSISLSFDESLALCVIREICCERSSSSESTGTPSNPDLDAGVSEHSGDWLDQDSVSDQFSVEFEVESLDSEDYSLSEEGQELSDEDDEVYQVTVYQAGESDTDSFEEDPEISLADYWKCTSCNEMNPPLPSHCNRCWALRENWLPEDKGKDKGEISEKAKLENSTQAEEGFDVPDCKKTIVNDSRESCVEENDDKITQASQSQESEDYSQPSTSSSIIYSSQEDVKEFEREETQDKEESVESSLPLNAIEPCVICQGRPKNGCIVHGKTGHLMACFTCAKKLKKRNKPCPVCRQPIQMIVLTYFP

Row | IC50 [µM] | Compound
1 | 3.23 | CC(C)(C)C[C@@H]1CN(C(=O)Nc2cccc(-c3nnn[nH]3)c2)[C@H](c2cccc(Cl)c2F)[C@@]1(C#N)c1ccc(Cl)cc1F (racemic) [Example 16, rac-(2S,3S,4S)-2-(3-chloro-2-fluoro-phenyl)-3-(4-chloro-2-fluoro-phenyl)-3-cyano-4-(2,2-dimethyl-propyl)-pyrrolidine-1-carboxylic acid [3-(1H-tetrazol-5-yl)-phenyl]-amide]
2 | 0.269 | CC(C)(C)C[C@@H]1CN(C(=O)NCC[C@H](O)CO)[C@H](c2cccc(Cl)c2F)[C@@]1(C#N)c1ccc(Cl)cc1F (mixture of isomers) [Example 4, rac-(2S,3S,4S)-2-(3-chloro-2-fluoro-phenyl)-3-(4-chloro-2-fluoro-phenyl)-3-cyano-4-(2,2-dimethyl-propyl)-pyrrolidine-1-carboxylic acid ((S)-3,4-dihydroxy-butyl)-amide]
3 | 0.644 | CC(C)(C)C[C@@H]1CN(C(=O)c2ccc(C(=O)O)cc2)[C@H](c2cccc(Cl)c2F)[C@@]1(C#N)c1ccc(Cl)cc1F (racemic) [Example 12, rac-4-[(2S,3S,4S)-2-(3-chloro-2-fluoro-phenyl)-3-(4-chloro-2-fluoro-phenyl)-3-cyano-4-(2,2-dimethyl-propyl)-pyrrolidine-1-carbonyl]-benzoic acid]
4 | 1.73 | CC(C)(C)C[C@@H]1CN(C(=O)Nc2ccncc2)[C@H](c2cccc(Cl)c2F)[C@@]1(C#N)c1ccc(Cl)cc1F (racemic) [Example 48, rac-(2S,3S,4S)-2-(3-chloro-2-fluoro-phenyl)-3-(4-chloro-2-fluoro-phenyl)-3-cyano-4-(2,2-dimethyl-propyl)-pyrrolidine-1-carboxylic acid pyridin-4-ylamide]
